Data published in ChEMBL document CHEMBL1127872, “Discovery and development of aryl-fused imidazole-based angiotensin II antagonists” (Bioorg Med Chem Lett, 1994).

How the values were obtained:
[1] = biological target: T1, Type-1 angiotensin II receptor (Bos taurus, UniProt P25104); assay: Inhibition of [125I][Ile5]-AII binding to bovine adrenal cortex membrane Angiotensin II receptor type 1; assay type: tissue-based
T1 sequence (P25104 whole entry): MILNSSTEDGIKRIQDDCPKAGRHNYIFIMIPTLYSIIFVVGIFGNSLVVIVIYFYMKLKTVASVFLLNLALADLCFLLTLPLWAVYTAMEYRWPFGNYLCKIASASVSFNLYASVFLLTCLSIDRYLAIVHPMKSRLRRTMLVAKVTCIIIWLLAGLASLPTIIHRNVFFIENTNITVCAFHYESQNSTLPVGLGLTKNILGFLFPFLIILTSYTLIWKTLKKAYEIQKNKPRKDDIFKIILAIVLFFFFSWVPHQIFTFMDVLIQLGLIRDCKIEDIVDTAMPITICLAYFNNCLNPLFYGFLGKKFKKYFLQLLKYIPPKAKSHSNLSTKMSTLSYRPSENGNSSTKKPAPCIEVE

Oryctolagus cuniculus = species: Oryctolagus cuniculus; assay: Potency of the Angiotensin II-induced contraction of rabbit aortic strips; assay type: functional, Aorta; conditions: for Kb: Oryctolagus cuniculus, Aorta, read-out: pA2 (converted)
[2] = biological target: Angiotensin II receptor (Rattus norvegicus) (UniProt P29089+P25095+P35351); assay: In vivo antagonism of Angiotensin II induced dose-pressor response in male rats.; assay type: functional, organism-based

Structure (SMILES)	IC50 [1] [µM]	Kb (Oryctolagus cuniculus) [µM]	ED2 [2] [mg/kg]	pA2 (Oryctolagus cuniculus)
CCCCc1nc2ccccc2n1Cc1cc(C)c(O)c(I)c1	2.2	–	–	–
CCCCc1nc2ccccc2n1Cc1ccc(O)c(C)c1	20	–	–	–
Cc1ccnc2c1nc(CCCO)n2Cc1ccc(-c2ccccc2C(=O)O)cc1	–	0.501	–	–
CCCCc1nc2ccccc2n1Cc1cc(C)c(O)c(C)c1	4.7	–	–	–
CCCCc1nc(Cl)c(CO)n1Cc1ccc(-c2ccccc2-c2nnn[nH]2)cc1 [LOSARTAN]	–	0.00251	0.28	–
CCCCc1nc2ccccc2n1Cc1cc(C)c(O)c([N+](=O)[O-])c1	2.2	–	–	–
CCSc1nc2c(C)ccnc2n1Cc1ccc(-c2ccccc2C(=O)O)cc1	–	0.00501	0.41	–
CCCCc1nc2c(C)ccnc2n1Cc1cc(Cl)c(O)c(Cl)c1	–	0.01	0.55	–
Cc1ccnc2c1nc(C1CC1)n2Cc1cc(Cl)c(O)c(Cl)c1	–	0.002	0.079	–
C/C=C/c1nc2c(C)ccnc2n1Cc1ccc(-c2ccccc2C(=O)O)cc1	–	0.00501	0.35	–
Cc1ccnc2c1nc(C(C)C)n2Cc1ccc(-c2ccccc2C(=O)O)cc1	–	0.0316	0.84	–
Oc1c(Cl)cc(Cn2c(C3CC3)nc3ncccc32)cc1Cl	–	0.631	–	–
CCCc1nc2cccnc2n1Cc1cc(Cl)c(O)c(Cl)c1	–	0.0316	0.65	–
CCCCc1nc2ccccc2n1Cc1ccc(O)cc1	8.5	–	–	–
CCCCc1nc2c(C)cccc2n1Cc1cc(Cl)c(O)c(Cl)c1	–	0.02	1.3	–
CCCc1nc2ncccc2n1Cc1cc(Cl)c(O)c(Cl)c1	–	0.794	–	–
CCCc1nc2c(Cl)ccnc2n1Cc1ccc(-c2ccccc2C(=O)O)cc1	–	0.00794	0.66	–
Oc1c(Cl)cc(Cn2c(C3CC3)nc3cccnc32)cc1Cl	–	0.02	0.48	–
CCCc1nc2c(C)ccnc2n1Cc1cc(Cl)c(O)c(Cl)c1	–	0.00126	0.15	–
CCCCc1nc2c(C)ccnc2n1Cc1ccc(-c2ccccc2C(=O)O)cc1	–	0.00794	0.45	–

Structure (SMILES)	IC50 [1] [µM]	Kb (Oryctolagus cuniculus) [µM]	ED2 [2] [mg/kg]	pA2 (Oryctolagus cuniculus)
COCc1nc2c(C)ccnc2n1Cc1ccc(-c2ccccc2C(=O)O)cc1	–	0.0794	0.65	–
CCCCc1nc2ccccc2n1CCc1cc(I)c(O)c(I)c1	81	–	–	–
O=C(O)c1ccccc1-c1ccc(Cn2c(C3CC3)nc3c(CO)ccnc32)cc1	–	0.01	–	–
CCCCc1nc2ccccc2n1Cc1cc(Br)c(O)c(Br)c1	2.5	–	–	–
CCCCc1nc2cccnc2n1Cc1cc(Cl)c(O)c(Cl)c1	–	0.0631	1.9	–
CCc1nc2c(C)ccnc2n1Cc1ccc(-c2ccccc2C(=O)O)cc1	–	0.00126	0.29	–
CCCCc1nc2ncccc2n1Cc1cc(Cl)c(O)c(Cl)c1	–	0.398	–	–
CCCCc1nc2ccccc2n1Cc1cc(Cl)c(O)c(Cl)c1	3.2	0.0631	6.5	–
CSc1nc2c(C)ccnc2n1Cc1ccc(-c2ccccc2C(=O)O)cc1	–	0.01	0.97	–
CCCCc1nc2ccccc2n1Cc1cc(I)c(O)c(I)c1	1.5	–	–	–
Cc1ccnc2c1nc(C1CCC1)n2Cc1ccc(-c2ccccc2C(=O)O)cc1	–	0.00501	0.25	–
O=C(O)c1ccccc1-c1ccc(Cn2c(C3CC3)nc3c(C(=O)O)ccnc32)cc1	–	0.0251	–	–
CCCc1nc2c(C)ccnc2n1Cc1ccc(-c2ccccc2C(=O)O)cc1	–	0.00316	0.16	8.5
Cc1ccnc2c1nc(C)n2Cc1ccc(-c2ccccc2C(=O)O)cc1	–	0.0501	1.3	–
Cc1ccnc2c1nc(C1CC1)n2Cc1ccc(-c2ccccc2C(=O)O)cc1	–	0.002	0.075	–
CCCCc1nc2ccccc2n1Cc1cc([N+](=O)[O-])c(O)c([N+](=O)[O-])c1	1.6	–	–	–
CCCCc1nc2ccccc2n1Cc1ccc(I)c(O)c1I	33	–	–	–
CCCCc1nc2ccccc2n1Cc1cc(C(C)(C)C)c(O)c(C(C)(C)C)c1	> 100	–	–	–
CCCc1nc2cccnc2n1Cc1ccc(-c2ccccc2C(=O)O)cc1	–	0.0398	–	–
